Laboratory results taken from PMC9950205, “Efficacy, safety, and pharmacokinetics of teduglutide in adult Japanese patients with short bowel syndrome and intestinal failure: two phase III studies with an extension” (Surgery Today, 2022).
Like-named read-outs stand apart in the source and are kept apart here.

Legend:
Assay type in all cases: in vivo, human
[1] = test system: adult Japanese patients with SBS-IF; experiment: Parenteral support (PS) requirements in phase III studies TED-C14-004, SHP633-306 and extension SHP633-307, teduglutide 0.05 mg/kg SC once daily; settings: for Patients with reduction in weekly PS volume of ≥ 20% from baseline at both weeks 20 and 24: 0.05 mg/kg SC once daily; for Patients whose PS volume decreased by ≥ 20%: 0.05 mg/kg/day
Procedure: (§1) As in the previous STEPS-1 study, patients participating in the core studies (TED-C14-004 and SHP633-306) underwent an optimization (2–8 weeks) and stabilization (4–8 weeks) period before initiation of treatment with teduglutide, during which PS was adjusted with the goal of achieving a stable target urine output of 1.0–2.0 L/day. All participating patients received teduglutide 0.05 mg/kg SC once daily throughout these three studies. PS was adjusted according to an algorithm based on the change from baseline in urine output and other assessments of fluid balance and nutrition status; the PS adjustment algorithm required reductions in PS if the urine output rose more than 10% above baseline. Patients had study visits at weeks 2 and 4, after which visits were held monthly during TED-C14-004 and SHP633-306. During SHP633-307, patients from SHP633-306 had monthly study visits throughout the 24 total months of treatment and then at 3-month intervals thereafter, and patients from TED-C14-004 had visits at 3-month intervals. The end-of-study assessments for SHP633-306 and TED-C14-004 were combined with the first visit of SHP633-307. SHP633-307 is ending soon with the approval of teduglutide in Japan.
Efficacy endpoints were defined in an analogous manner to previous pivotal studies. These included a clinically meaningful reduction in weekly PS volume of ≥ 20% [17] measured between baseline and both 20 and 24 weeks for TED-C14-004 and SHP633-306, and a continued reduction in weekly PS volume of ≥ 20% from the baseline in core studies at each scheduled visit until the last visit before the interim data cut-off of SHP633-307. Other efficacy endpoints included changes in absolute and percentage weekly PS volumes from the baseline in the core studies at each study visit, the number of days per week of PS, the number of patients who achieved enteral autonomy at the end of treatment or the data cut-off, and the changes in plasma citrulline levels from baseline in the core studies. The primary efficacy data were derived from patient diaries and compared against investigator-prescribed data captured in electronic case report forms.
Efficacy was evaluated between baseline and 24 weeks in TED-C14-004 and SHP633-306 and between baseline and 30 months in […]. Among patients who entered SHP633-307, the total follow-up periods, including the prior studies, were up to 14–57 months of total teduglutide exposure for patients from SHP633-306 and TED-C14-004.
Post hoc analyses of PS volume reductions in patients with Crohn’s disease, with and without a stoma, were performed for TED-C14-004.

[2] = Plasma pharmacokinetics of teduglutide, non-compartmental analysis; settings: for half-life / AUC(0-inf) / AUC(0-t) / Cmax / Tmax: human, plasma, 0.05 mg/kg; for half-life: read-out: t½ (converted)
Procedure: In TED-C14-004 and SHP633-306, blood samples for PK evaluations were taken pre-dose and at 0.25, 0.5, 1, 2, 3, 4, 6, 8, 10, and 12 h post-dose during the first 12 weeks of treatment with teduglutide. In SHP633-307, patients continuing from study TED-C14-004 had blood samples for PK evaluations taken pre-dose and at […], and 1, 2, 3, 4, 6, 8, 10, and 12 h post-dose at the first extension study visit. Patients continuing from SHP633-306 had blood samples taken pre-dose and 1 and 2 h post-dose at the first extension study visit. Blood samples to test for the presence of antibodies to teduglutide were taken at baseline and weeks 12 and 24 in SHP633-306; ≥ 14 h after dosing at baseline and weeks 12 and 24, and then every 6 months thereafter in TED-C14-004; and every 3 months in SHP633-307.
Single-dose PK parameters were estimated using a non-compartmental analysis and included the maximum plasma concentration of teduglutide (Cmax), time to Cmax (tmax), terminal half-life elimination (t½), area under the plasma concentration–time curve (AUC) from time 0 to infinity (AUC0-inf), and AUC from time 0 to the last measurable concentration (AUC0-t).

[3] = test system: adult Japanese patients with SBS-IF; experiment: Urine output, change from baseline; settings: for 48 h urine output increase from baseline / 48 h urine output percent increase from baseline: 24 weeks
Procedure: as §1

[4] = 12 months, patients from SHP633-306, n = 4, mean ± SD
[5] = 24 weeks, SHP633-306, n = 6, mean ± SD
[6] = 24 weeks, TED-C14-004, n = 9, mean ± SD
[7] = 30 months, TED-C14-004, n = 7, mean ± SD
[8] = 39 months, patients from TED-C14-004 in extension study, n = 5, mean ± SD
[9] = interim data cut-off, patients from TED-C14-004 in extension study, n = 3, mean ± SD
[10] = last visit before interim data cut-off of SHP633-307, patients from SHP633-306, n = 2, mean ± SD
[11] = post hoc, TED-C14-004, patients with Crohn’s disease, 24 weeks, n = 7, mean ± SD
[12] = post hoc, TED-C14-004, patients with Crohn’s disease, 30 months, n = 6, mean ± SD
[13] = post hoc, TED-C14-004, patients with a stoma, 24 weeks, n = 6, mean ± SD
[14] = post hoc, TED-C14-004, patients with a stoma, 30 months, n = 5, mean ± SD
[15] = post hoc, TED-C14-004, patients without a stoma, 24 weeks, n = 3, mean ± SD
[16] = post hoc, TED-C14-004, patients without a stoma, 30 months, n = 2, mean ± SD
[17] = sc, SHP633-306, plasma, 0.05 mg/kg SC once daily, n = 7, mean ± SD
[18] = sc, TED-C14-004, plasma, 0.05 mg/kg SC once daily, n = 8, mean ± SD
[19] = subcutaneous, SHP633-307, patients from TED-C14-004, first extension study visit, mean ± SD
[20] = after 6 months, patients who advanced to SHP633-307 from SHP633-306, n = 4, mean ± SD
[21] = last visit before interim data cut-off of SHP633-307, patients from TED-C14-004, n = 7, mean ± SD

CC[C@H](C)[C@H](NC(=O)[C@H](Cc1ccccc1)NC(=O)[C@H](CC(=O)O)NC(=O)[C@H](CCCNC(=N)N)NC(=O)[C@H](C)NC(=O)[C@H](C)NC(=O)[C@H](CC(C)C)NC(=O)[C@H](CC(N)=O)NC(=O)[C@H](CC(=O)O)NC(=O)[C@H](CC(C)C)NC(=O)[C@@H](NC(=O)[C@@H](NC(=O)[C@H](CC(N)=O)NC(=O)[C@H](CCSC)NC(=O)[C@H](CCC(=O)O)NC(=O)[C@H](CC(=O)O)NC(=O)[C@H](CO)NC(=O)[C@H](Cc1ccccc1)NC(=O)[C@H](CO)NC(=O)CNC(=O)[C@H](CC(=O)O)NC(=O)CNC(=O)[C@@H](N)Cc1c[nH]cn1)[C@@H](C)O)[C@@H](C)CC)C(=O)N[C@@H](CC(N)=O)C(=O)N[C@@H](Cc1c[nH]c2ccccc12)C(=O)N[C@@H](CC(C)C)C(=O)N[C@H](C(=O)N[C@@H](CCC(N)=O)C(=O)N[C@H](C(=O)N[C@@H](CCCCN)C(=O)N[C@H](C(=O)N[C@H](C(=O)N[C@@H](CC(=O)O)C(=O)O)[C@@H](C)O)[C@@H](C)CC)[C@@H](C)O)[C@@H](C)CC [teduglutide]
PS volume decrease from baseline [1, 4]: 7.3 ± 6.5 L/week
PS volume percent change from baseline [1, 4]: −51.6% ± 28.5%
PS volume decrease from baseline [1, 5]: 3.3 ± 3.6 L/week
PS volume percent change from baseline [1, 5]: −25.6% ± 25.5%
Reduction in PS infusion frequency from baseline [1, 5]: 0.5 ± 1.23 days/week
PS volume decrease from baseline [1, 6]: 4.9 ± 4.8 L/week
PS volume percent change from baseline [1, 6]: −30.1% ± 25.9%
Reduction in PS infusion frequency from baseline [1, 6]: 1.0 ± 1.8 days/week
PS volume decrease from baseline [1, 7]: 8.3 ± 5.9 L/week
PS volume percent change from baseline [1, 7]: −53.5% ± 33.9%
Reduction in PS infusion frequency from baseline [1, 7]: 2.1 ± 3.3 days/week
PS volume decrease from baseline [1, 8]: 7.9 ± 4.5 L/week
PS volume percent change from baseline [1, 8]: −63.6% ± 33.9%
Patients with reduction in weekly PS volume of ≥ 20% from baseline at both weeks 20 and 24 ([1]; SHP633-306, 4 of 7 patients): 57.1%
Patients with reduction in weekly PS volume of ≥ 20% from baseline at both weeks 20 and 24 ([1]; TED-C14-004, 5 of 11 patients): 45.5%
Patients with reduction in weekly PS volume of ≥ 20% from baseline at both weeks 20 and 24 ([1]; TED-C14-004 and SHP633-306 together, 9 of 18 patients): 50%
Patients with ≥ 20% reduction in weekly PS volume from baseline ([1]; after 30 months, TED-C14-004, 6 of 7 patients): 85.7%
Patients whose PS volume decreased by ≥ 20% ([1]; at 24 weeks, TED-C14-004 and SHP633-306): 9/18
PS volume percent change from baseline ([1]; at data cut-off in SHP633-307, all patients, mean ± SD): −57.08 ± 28.49%
Patients who achieved enteral autonomy ([1]; by 30 months, TED-C14-004, 2 of 8 patients): 25%
Patients whose PS volume decreased by ≥ 20% ([1]; by data cut-off in SHP633-307): all 11 patients
Patients with ≥ 20% reduction in weekly PS volume ([1]; by the end of TED-C14-004, maintained to last visit before data cut-off in the extension study): all patients
Patients who maintained ≥ 20% reduction in PS volume from baseline at each scheduled visit to the last visit before data cut-off ([1]; extension study SHP633-307, patients from SHP633-306): All patients
Patients who achieved enteral autonomy ([1]; first 24 weeks, SHP633-306 and TED-C14-004): No patients
Reduction in PS infusion frequency from baseline ([1]; interim data cut-off of extension study, patients from SHP633-306, mean ± SD): 1.9 ± 2.3 days/week
PS volume decrease from baseline [1, 9]: 11.5 ± 3.7 L/week
PS volume percent change from baseline [1, 9]: −63.57% ± 32.0%
PS volume decrease from baseline [1, 10]: 11.7 ± 8.6 L/week
PS volume percent change from baseline [1, 10]: −76.4% ± 25.9%
PS volume decrease from baseline [1, 11]: 5.3 ± 5.4 L/week
PS volume percent change from baseline [1, 11]: −31.9% ± 28.9%
PS volume decrease from baseline [1, 12]: 9.3 ± 5.8 L/week
PS volume percent change from baseline [1, 12]: −59.4% ± 32.9%
PS volume decrease from baseline [1, 13]: 6.1 ± 5.5 L/week
PS volume percent change from baseline [1, 13]: −35.3% ± 30.1%
PS volume decrease from baseline [1, 14]: 10.7 ± 5.4 L/week
PS volume percent change from baseline [1, 14]: −65.2% ± 33.2%
PS volume decrease from baseline [1, 15]: 2.7 ± 1.8 L/week
PS volume percent change from baseline [1, 15]: −19.6% ± 13.1%
PS volume decrease from baseline [1, 16]: 2.5 ± 0.2 L/week
PS volume percent change from baseline [1, 16]: −24.3% ± 8.7%
Maintenance of enteral autonomy ([1]; the 2 patients of TED-C14-004 with enteral autonomy, throughout SHP633-307 until interim data cut-off): remained off PS
Reduction in PS infusion frequency from baseline ([1]; up to the end of the extension study, patients from TED-C14-004, mean ± SD): 2.2 ± 3.3 days/week
Pre-dose concentrations after multiple dosing ([2]; SHP633-307, patients from SHP633-306, sparse PK sampling, suggests no accumulation): below the lower limit quantification
half-life ([2]; sc, SHP633-306, plasma, 0.05 mg/kg SC once daily, n = 6, mean ± SD): 1.1 ± 0.2 h
AUC(0-inf) [2, 17]: 252 ± 85.4 ng·h/mL
AUC(0-t) [2, 17]: 240 ± 80.7 ng·h/mL
Cmax [2, 17]: 49.5 ± 16.4 ng/mL
Tmax [2, 17]: 3.6 ± 1.6 h
AUC(0-inf) [2, 18]: 204 ± 51.1 ng·h/mL
AUC(0-t) [2, 18]: 201 ± 51.6 ng·h/mL
Cmax [2, 18]: 49.7 ± 19.7 ng/mL
Tmax [2, 18]: 2.6 ± 1 h
half-life [2, 18]: 1.2 ± 0.7 h
AUC(0-inf) [2, 19]: 209 ± 72.7 ng·h/mL
AUC(0-t) [2, 19]: 200 ± 71.6 ng·h/mL
Cmax [2, 19]: 54.1 ± 18.7 ng/mL
Tmax [2, 19]: 2.1 ± 0.4 h
48 h urine output increase from baseline ([3]; SHP633-306, n = 6, mean ± SD): 212.5 ± 265.9 mL/day
48 h urine output percent increase from baseline ([3]; SHP633-306, n = 6, mean ± SD): 18.0% ± 23.9%
48 h urine output increase from baseline ([3]; TED-C14-004, n = 9, mean ± SD): 226.7 ± 555.1 mL/day
48 h urine output percent increase from baseline ([3]; TED-C14-004, n = 9, mean ± SD): 9.3% ± 22.4%
Urine output increase from baseline [3, 7]: 306.0 ± 735.0 mL/day
Urine output percent increase from baseline [3, 7]: 11.2% ± 24.6%
Urine output increase from baseline [3, 20]: 345.0 ± 217.8 mL/day
Urine output percent increase from baseline [3, 20]: 29.0 ± 21.6%
Mean urine output [3, 21]: 1388.2 ± 507.8 mL/day
Urine output percent change from baseline [3, 21]: −2.0% ± 35.3%
